In the NIST ThermoML archive (doi:10.1016/j.fluid.2007.07.002):

Assay: xn = mol fraction of the nth substance listed
Conditions: 298.15 K, 101 kPa, Liquid

CC(C)CC(C)(C)C [2,2,4-trimethylpentane] + CCCO
Conditions	mass density [kg/m3]
x2 = 0.0531	690.2
x2 = 0.098	692.4
x2 = 0.1986	698.3
x2 = 0.2981	705.1
x2 = 0.3987	713.1
x2 = 0.4987	722.3
x2 = 0.5987	732.9
x2 = 0.6994	745.8
x2 = 0.8007	761
x2 = 0.9	779.2
x2 = 0.9499	789.6

C=COCCC [propyl vinyl ether] + CC(C)CC(C)(C)C
Conditions	mass density [kg/m3]
x1 = 0.0468	690
x1 = 0.1011	692.6
x1 = 0.1999	697.5
x1 = 0.2997	703
x1 = 0.399	709
x1 = 0.5009	715.9
x1 = 0.6008	723.4
x1 = 0.7005	731.6
x1 = 0.7997	740.8
x1 = 0.8991	751.2
x1 = 0.9507	757.1

C=COCCC [propyl vinyl ether] + CCCO
Conditions	mass density [kg/m3]
x1 = 0.051	798.7
x1 = 0.1008	796.3
x1 = 0.2001	791.7
x1 = 0.2995	787.3
x1 = 0.4016	782.9
x1 = 0.4983	779.1
x1 = 0.5999	775.3
x1 = 0.7013	771.8
x1 = 0.7977	768.7
x1 = 0.8977	765.7
x1 = 0.9507	764.3
